Test results as given in patent publication US12071424B2, “IRE1 small molecule inhibitors” (Cornell University, priority 2017, dated 2024).

Key:
[1] = tested on: IRE1a-mediated XBP1 splicing; test: Target engagement in pancreas and salivary gland (RT-qPCR XBP1 splicing); type: in vivo; conditions: mouse, 30 mg/kg oral gavage, 6 hours; compared to control and Compound B
Description: Mice (n=3 per group) were orally gavaged with 30 mg/kg vehicle control or IRE1 inhibitors dissolved in H2O. After 6 hours, mice were euthanized and pancreas and salivary gland tissues were isolated, snap frozen on dry ice, and used for subsequent RT-qPCR analysis of beta-actin, XBP1s and total XBP1. Gene expression was evaluated by quantitative PCR for XBP1s and total XBP1 transcripts using the 2^(−ΔCT) method for calculating normalized gene expression. Gene expression levels were normalized to Actb transcripts. XBP1 splicing is calculated as XBP1s expression divided by total XBP1 expression.

IRE1a/XBP1 pathway = test: Inhibition of endogenous XBP1 splicing in 293T cells with tunicamycin; type: cell-based, human
Description: Gene expression was evaluated by quantitative PCR for XBP1s and total XBP1 transcripts using the 2^(−ΔCT) method for calculating normalized gene expression. Gene expression levels were normalized to ACTB transcripts. XBP1 splicing was calculated as actin-normalized XBP1s expression divided by actin-normalized total XBP1 expression.

IRE1a = IRE1a phosphorylation inhibition assay (immunoblot, 293T cells, tunicamycin); type: cell-based, human
Description: Inhibition of ER stress-induced IRE1a phosphorylation and XBP1s protein accumulation in human 293T cells assessed. Immunoblot analysis was performed in human 293T cells lysates obtained from cells after exposure to the chemical ER stress-inducing agent tunicamycin, and optional treatment with Compound C. Lysates were probed with antibodies recognizing IRE1a, phosphorylated IRE1a, XBP1, or TATA-binding protein (TBP). (TBP) was blotted as a protein loading control. […] See FIG. 8, 20 nM was sufficient to reduce XBP1s protein levels below the limit of detection in this assay.

[2] = tested on: IRE1a-dependent XBP1 splicing; test: Inhibition of IRE1a-dependent XBP1 splicing in mice with metastatic ovarian cancer; type: in vivo, mouse; conditions: single oral dose 45 mg/kg, 24 hours, FACS-isolated ascites cells
Description: Mice (n=3) with established metastatic ovarian cancer were orally gavaged with 45 mg/kg vehicle control or inhibitor dissolved in H2O. The Inhibitor was Compound C. Compound C is 2-chloro-N-(5-(2-(((1r,4r)-4-dimethylamino)cyclohexyl)amino)-8-ethylquinazolin-6-yl)-6-methylpyridin-2-yl)benzenesulfonamide, Compound 91, described herein. After 24 hours, mice were euthanized, ascites-resident cells were extracted and tumor cells, dendritic cells (DCs), and CD4+ T cells were isolated by FACS. The samples were used for subsequent if RT-qPCR analysis of beta-actin, XBP1s and total XBP1. Gene expression was evaluated by quantitative PCR for XBP1s and total XBP1 transcripts using the 2^(−ΔCT) method for calculating normalized gene expression. Gene expression levels were normalized to Actb transcripts. XBP1 splicing is calculated as XBP1s expression divided by total XBP1 expression. A single oral dose of Compound C suppressed IRE1a-dependent XBP1 splicing in tumor cells and relevant immune cells in vivo over 24 hours, FIG. 7.
Mice (n=3) with established metastatic ovarian cancer were orally gavaged with 45 mg/kg vehicle control or inhibitor dissolved in H2O. […] Gene expression was evaluated by quantitative PCR for XBP1s and total XBP1 transcripts using the 2^(−ΔCT) method for calculating normalized gene expression. […] XBP1 splicing is calculated as XBP1s expression divided by total XBP1 expression. […]

[3] = Metabolic assays of N,N-dimethyl compounds; type: in vitro ADME; conditions: data not shown
[4] = Bioavailability assay (pharmacokinetic study); conditions: mouse; IV 1 mg/kg, PO 30 mg/kg (Compound A PO 10 mg/kg)

oral bioavailability [4] [%] | Structure (SMILES) | IRE1a-mediated XBP1 splicing in pancreas and salivary gland [1] | shift in potency between Compound A and Compound C (IRE1a/XBP1 pathway) | concentration sufficient to reduce XBP1s protein levels below the limit of detection (IRE1a) [nM] | IRE1a phosphorylation (IRE1a; pre-incubation with compound) | accumulation of XBP1s protein (IRE1a; pre-incubation with compound) | IRE1a-dependent XBP1 splicing in tumor cells and immune cells in vivo [2] | metabolism [3]
 | CCc1cc(-c2ccc(NS(=O)(=O)c3ccccc3Cl)nc2C)cc2cnc(N[C@H]3CC[C@H](N(C)C)CC3)nc12 [Compound C] | potently suppressed | approximately 3.6 × | 20 | strongly repressed | completely abrogated | suppressed | removal of the methyl groups
 | CCc1cc(-c2ccc(NS(=O)(=O)c3ccccc3Cl)nc2OC)cc2cnc(N[C@H]3CC[C@H](N(C)C)CC3)nc12 [Compound D] | potently suppressed |  |  |  |  | suppressed | removal of the methyl groups
4 | CCc1cc(-c2ccc(NS(=O)(=O)c3ccccc3Cl)nc2C)cc2cnc(N[C@H]3CC[C@H](N)CC3)nc12 [Compound A, N-(5-(2-(((1r,4r)-4-aminocyclohexyl)amino)-8-ethylquinazolin-6-yl)-6-methylpyridin-2-yl)-2-chlorobenzenesulfonamide] |  |  |  |  |  |  | 
